A short description of data set [1]: Toxicity (LD50) when tested in mice. To be noted: mouse, in vivo. The source says:
Another advantage of the compounds of this invention are their low toxicity.

Data set [2] is described as follows: Stability of the compound, solid or in water (NMR and TLC analysis). The data set is classed as physicochemical.

Usually LD50 stands for the dose at which mortality reaches 50%. High values mean a less toxic substance, low ones a more toxic substance. Consider `CCC(C(=O)OC1O[C@H](CO)[C@@H](O)[C@H](O)[C@H]1O)C(=O)OC1O[C@H](CO)[C@@H](O)[C@H](O)[C@H]1O` (stereo partly drawn) [Example 4, Di-(1,1'-D-glucopyranosyl)ethylmalonates], for which, in data set [1], the LD50 was found to be 9700 mg/kg.
Regarding `CCCCC(C(=O)OC1O[C@H](CO)[C@@H](O)[C@H](O)[C@H]1O)C(=O)OC1O[C@H](CO)[C@@H](O)[C@H](O)[C@H]1O` (stereo partly drawn) [Example 2, Di-(1,1'-D-glucopyranosyl)n-butylmalonates], the “degradation at 0° after one month” value in data set [2] (0°, one month, NMR and TLC analysis) is “no noticeable degradation”. For the same compound, in data set [2] (0°, substantially long periods of time), the “stability at 0°” value is “stable at 0° for substantially long periods of time”. Besides, the “hydrolysis in water after one month” value in data set [2] (15 mg/mL in water, room temperature, one month) was “Partial hydrolysis into D-glucose”. For the same compound, in data set [2] (15 mg/mL in water, room temperature, one week, TLC analysis), the stability in water entry is reported as “stable in water”. In data set [2] (aqueous solution, 60°), the acyl-migration products result is “No acyl-migration products were detected”; the “relative hydrolysis of β- and α-anomers” value is “hydrolysis of the β-anomers appeared faster than that of the α-anomers”. Moreover, in data set [2] (aqueous solution, 60°, 36 hours, α-anomers), the “α-anomers remaining after 36 hours” value is given as “some α-anomers were still present”. Further, in data set [2] (aqueous solution, 60°, 36 hours, β-anomers), the “β-anomers remaining after 36 hours” value is listed as “completely disappeared”. Besides, the “hydrolysis of aqueous solution at 60°” value in data set [2] (aqueous solution, 60°, formation of D-glucose, NMR and TLC analysis) is “some hydrolysis after about two hours”. Also, the “time after which slow degradation of the solid was noted” value in data set [2] (solid compound, 60°, D-glucose and unidentified decomposition products (TLC)) was 3 h.

These data come from patent US4572907A, “High caloric product for I.V. administration” (Abbott Laboratories, priority 1984, dated 1986).
